Data as given in PMC8707700, “Ru(III) Complexes with Lonidamine-Modified Ligands” (International Journal of Molecular Sciences, 2021).
Like-named read-outs stand apart in the source and are kept apart here.

Tests used:
[1] = system: A549; assay: Antiproliferative activity, MTT assay; type: cell-based, human; settings: read-out: IC50, µM A549
Experimental: (§1) The antiproliferative activity of new ligands and complexes was determined against human cell lines, including colon adenocarcinoma SW480, breast adenocarcinoma MCF-7, lung adenocarcinoma A549, neuroblastoma SHSY5Y, and non-tumourigenic HaCaT (Table 4). In general, complexes were more cytotoxic compared to ligands, lonidamine, and, in some cases, cisplatin. […] We chose this compound and the synthetically accessible complex 16 for mechanistic studies.
(§2) The antiproliferative activity was studied by MTT assays as published previously. For flow cytometry studies, cells were plated into 6-well plates (Eppendorf, Germany; 4 × 10^5 cells in 2 mL of DMEM) and incubated for 24 h. Solutions of complexes in DMSO were prepared immediately prior to the day of the experiments. Cells were treated with either 20 µM of cisplatin, 50 µM of 16, or 20 µM of 20. Concentrations corresponded to two-fold IC50 values based on MTT assays. Cells were incubated for 24 h, pooled, washed with cold PBS, and resuspended in DMEM. Aliquots of cells were processed as recommended in the Muse Annexin V&Dead Cell Kit or Muse Caspase-3/7 Kit (Luminex). Measurements were carried out on a Muse Cell Analyser, Luminex corp., TX, USA.

[2] = system: SW480; assay: Antiproliferative activity, MTT assay; type: cell-based, human; settings: read-out: IC50, µM SW480
Experimental: as §1, §2

[3] = system: HaCaT; assay: Antiproliferative activity, MTT assay; type: cell-based, human; settings: read-out: IC50 HaCaT
Experimental: as §1, §2

[4] = system: MCF-7; assay: Antiproliferative activity, MTT assay; type: cell-based, human; settings: read-out: IC50, µM MCF-7
Experimental: as §1, §2

[5] = Cyclic voltammetry (redox potentials); type: physicochemical; settings: Pt and GC electrodes, CH3CN and CH2Cl2, any applied potential
Experimental: The redox behaviour of ligand 10 and complexes 15–20 was studied on Pt and glassy carbon (GC) electrodes in CH3CN and CH2Cl2.
All electrochemical measurements were carried out under argon at room temperature. Cyclic voltammetry (CV) experiments were performed in KO264 PAR three-electrode microcells in CH3CN solution with 0.05 M of Bu4NBF4 as a supporting electrolyte using a IPC-Win potentiostat. The number of transferred electrons was determined by comparing to the height of the […] wave for the same concentration. A glassy carbon (GC) working electrode (diameter 2 mm), a platinum wire auxiliary electrode, and an aqueous Ag/AgCl/KCl (sat.) reference electrode was used. Solvents were routinely distilled and dried prior to use.

[6] = system: HCT116 cells; assay: Annexin V/7-AAD flow cytometry (Muse Annexin V & Dead Cell Kit); type: cell-based; settings: HCT116, 24 h, 2xIC50; one representative experiment
Experimental: Mechanisms of cell death, that is, Annexin V/7-AAD reactivity and caspase 3/7 activation, were determined for 16 and 20 in HCT116 cells using the Muse® Annexin V & Dead Cell Kit (Luminex corp., Austin, TX, USA) and flow cytometry. Cells were incubated with 16, 20, or cisplatin (reference drug) for 24 h at concentrations corresponding to 2xIC50 values (obtained in MTT assays; Table 4). The percentages of Annexin V-positive cells in response to 16 and 20 were higher than cisplatin (Figure 8). Complex 20 with the C12 linker induced Annexin V positivity slightly more efficiently than 16 with the C3 linker (27.4 ± 2.1% vs. 19.7 ± 0.6%).
as §2

[7] = system: SH-SY5Y; assay: Antiproliferative activity, MTT assay; type: cell-based, human; settings: 72 h exposure, mean ± SD
Experimental: as §1, §2

[8] = Stability of Ru(III) complexes in phosphate buffer by UV-vis spectrophotometry; type: physicochemical; settings: 20 mM phosphate buffer pH 7.4, 100 mM NaCl, 37 °C; mean ± SD, three experiments
Experimental: The stability of Ru(III) complexes (15–20) was investigated in a solution resembling physiological conditions (20 mM of phosphate buffer, pH 7.4, and 100 mM of NaCl at 37 °C) by UV-vis spectrophotometry (Table 1). The half-transformation time t1/2 was calculated based on changes in the electronic absorption spectrum (Figure S1) and defined as the value of t at the Alin/2 point. ΔA(t) was plotted against λmax; the initial section was approximated as a linear function.
The stability of Ru(III) complexes was studied by electron absorption spectroscopy in 20 mM of phosphate buffer, pH 7.4, and 100 mM of NaCl. The working solution (2 mL, 200 μM complex) was prepared by diluting 10 μL of the original 40 mM solution in DMSO and 1.99 mL of phosphate buffer. UV-vis spectra were recorded every 60 s in the range of 280–600 nm at 37 °C. The half-transformation time was t1/2. For λmax, ΔA(t) was plotted, where ΔA = A0–Ai, an initial section, was approximated as a linear function. At ΔAline./2 point calculated as t = t1/2.

[9] = Lipophilicity, shake-flask method water/n-octanol; type: physicochemical; settings: UV-vis, mean ± SD
Experimental: The lipophilicity of complexes 15–20 was studied using a standard shake-flask method in a mixture of water/n-octanol. For the quantification of compounds in the water phase, UV-vis spectrophotometry was used. […] Among other complexes, as expected, 20 was the most lipophilic (Table 1).
N-octanol was saturated with water and with water saturated with n-octanol; mixture400 mL of n-octanol (water) and 100 mL of water (n-octanol) was stirred for 24 h; and then fractions were separated. The sample of the complex was dissolved in n-octanol and a series of solutions in octanol (300, 250, 3 × 200, 150, 100, and 50 μM) was prepared. Absorption spectra were recorded and the calibration curve for maximum absorption was plotted. From 200 μM solutions, the mixtures with water were prepared (1:1, 1:2, 2:1 v/v) and shaken for 15 min. The organic phase was separated by centrifugation. The concentration of the complex in n-octanol was determined from the calibration curve and lipophilicity (logP) was calculated as log P = log [(C0–Caq)/Caq].

Row | Compound | IC50 ([1]; Homo sapiens, A549, 72 h) [µM] | IC50 ([2]; Homo sapiens, SW480, 72 h) [µM] | IC50 ([3]; Homo sapiens, HaCaT, 72 h) [µM] | IC50 ([4]; Homo sapiens, MCF7, 72 h) [µM] | melting point [°C] | IC50 ([1]; MTT, 72 h exposure, mean ± SD) [µM] | IC50 [7] [µM] | IC50 ([2]; MTT, 72 h exposure, mean ± SD) [µM] | IC50 ([4]; MTT, 72 h exposure, mean ± SD) [µM] | t1/2 (half-transformation time) [8] [min] | further results
1 | O=C(NCCn1ccnc1)c1nn(Cc2ccc(Cl)cc2Cl)c2ccccc12 [Compound 9, N-(2-(1H-Imidazol-1-yl)ethyl)-1-(2,4-dichlorobenzyl)-1H-indazole-3-carboxamide] | 50 ± 16 | 48 ± 10 | 23 ± 2 | 35 ± 6 | 120 to 121 | – | – | – | – | – | –
2 | O=C(NCCCn1ccnc1)c1nn(Cc2ccc(Cl)cc2Cl)c2ccccc12 [Compound 10, N-(3-(1H-Imidazol-1-yl)propyl)-1-(2,4-dichlorobenzyl)-1H-indazole-3-carboxamide] | > 90 | > 90 | 39 ± 4 | > 90 | 121 to 122 | – | – | – | – | – | redox transitions of the ligand [5]: redox transitions were not observed
3 | O=C(NCCCCn1ccnc1)c1nn(Cc2ccc(Cl)cc2Cl)c2ccccc12 [Compound 11, N-(4-(1H-Imidazol-1-yl)butyl)-1-(2,4-dichlorobenzyl)-1H-indazole-3-carboxamide] | 25 ± 7 | 28 ± 8 | 45 ± 3 | 22 ± 6 | 98 to 100 | – | – | – | – | – | –
4 | O=C(NCCCCCCn1ccnc1)c1nn(Cc2ccc(Cl)cc2Cl)c2ccccc12 [Compound 12, N-(6-(1H-Imidazol-1-yl)hexyl)-1-(2,4-dichlorobenzyl)-1H-indazole-3-carboxamide] | 24 ± 10 | 16 ± 6 | 40 ± 4 | 17 ± 2.5 | – | – | – | – | – | – | –
5 | O=C(NCCCCCCCCn1ccnc1)c1nn(Cc2ccc(Cl)cc2Cl)c2ccccc12 [Compound 13, N-(8-(1H-Imidazol-1-yl)octyl)-1-(2,4-dichlorobenzyl)-1H-indazole-3-carboxamide] | 15 ± 6 | > 90 | 45 ± 2 | 10 ± 2 | – | – | – | – | – | – | –
6 | O=C(NCCCCCCCCCCCCn1ccnc1)c1nn(Cc2ccc(Cl)cc2Cl)c2ccccc12 [Compound 14, N-(12-(1H-Imidazol-1-yl)dodecyl)-1-(2,4-dichlorobenzyl)-1H-indazole-3-carboxamide] | 15 ± 2.2 | 8.4 ± 1.6 | – | 20.8 ± 4.7 | 86 to 88 | – | – | – | – | – | –
7 | N.N.[Cl][Pt][Cl] [cisplatin, reference compound] | – | – | – | – | – | 23 ± 6.5 | 9.5 ± 0.1 | 21.7 ± 0.5 | > 30 | – | early apoptosis (Annexin V/7-AAD) [6]: 4%; late apoptosis (Annexin V/7-AAD) [6]: 8%; live cells (Annexin V/7-AAD) [6]: 88%; necrosis (Annexin V/7-AAD) [6]: 0%; IC50 ([3]; MTT, 72 h exposure, non-tumourigenic cells, mean ± SD): 10 ± 5 µM
8 | O=C(O)c1nn(Cc2ccc(Cl)cc2Cl)c2ccccc12 [lonidamine, 1-(2,4-dichlorobenzyl)-1H-indazole-3-carboxylic acid] | – | – | – | – | – | – | – | – | – | – | IC50 ([1]; Homo sapiens, A549, MTT, 72 h exposure, mean ± SD): > 90 µM; IC50 ([7]; Homo sapiens, SH-SY5Y): > 30 µM; IC50 ([2]; Homo sapiens, SW480, MTT, 72 h exposure, mean ± SD): > 90 µM; IC50 ([3]; Homo sapiens, HaCaT, MTT, 72 h exposure, non-tumourigenic cells, mean ± SD): 3 ± 1 µM; IC50 ([4]; Homo sapiens, MCF7, MTT, 72 h exposure, mean ± SD): 30 ± 10 µM
9 | Na[trans-Ru(DMSO)(C20H17Cl2N5O)Cl4] [Compound 15] | – | – | – | – | – | > 30 | 25.8 ± 4.5 | 21.4 ± 1.8 | 20.4 ± 0.1 | 6 ± 0.333 | –
10 | Na[trans-Ru(DMSO)(C22H21Cl2N5O)Cl4] [Compound 17] | – | – | – | – | – | > 30 | 27.7 ± 3.3 | 21 ± 1.8 | > 30 | 6 ± 0.333 | –
11 | Na[trans-Ru(DMSO)(C24H25Cl2N5O)Cl4] [Compound 18] | – | – | – | – | – | 12.9 ± 1 | 5.1 ± 2.5 | 19.6 ± 3.9 | 22 ± 0.7 | 10.8 ± 0.5 | Log P [9]: 0.6 ± 0.1
12 | Na[trans-Ru(DMSO)(C26H29Cl2N5O)Cl4] [Compound 19] | – | – | – | – | – | 5.9 ± 2.6 | 2.64 ± 1.5 | 9.3 ± 0.1 | 17.1 ± 0.3 | 23.17 ± 1.17 | –
